# Earlier results, collected in patent US20170304196A1, “ORALLY DISINTEGRATING TABLET AND METHOD FOR PRODUCING SAME” (FUJIFILM CORPORATION, priority 2015, published 2017).
# Details: anionic substance
structure (smiles),measurement,value
CCCCCCCCCCCCOS(=O)(=O)[O-].[Na+] [sodium lauryl sulfate],pKa,1.9
